Source: patent US3965109A, “Certain aryl amino pyridines” (priority 1971, dated 1976)

Key:
Wheat [1] = assay: Selective herbicidal activity; type: in vivo; conditions: for Damage to plants: 28 days, scale 0 to 10 (complete kill)
Description: (§1) This Example illustrates the selective herbicidal activity of compounds No. 5 and 12 of Table 1. The compounds, formulated as in Example 5 were sprayed on to pots of soil previously sown with seeds of the plant species shown in Tables 13 and 14.
(§2) Table 14 gives the results for compound No. 12 of Table 1 The figures are assessments of damage to the plants 23 days after treatment, on a scale of 0 to 5 where 0 is no effect and 5 is complete kill

broadleaved plants = assay: Selective herbicidal activity; type: in vivo; conditions: Tables 13 and 14
Description: as §1, §2

Barley [2] = assay: Selective herbicidal activity; type: in vivo; conditions: for Damage to plants: 28 days, scale 0 to 10 (complete kill)
Description: as §1, §2

[3] = test system: Tetranychus telarius (red spider mites, adults); assay: Pest toxicity test; type: in vivo; conditions: 0.1% by weight; French bean; 3 days
Barley [4] = assay: Further herbicidal test, various rates; type: in vivo; conditions: scale 0 to 5 (complete kill)
Onion = assay: Further herbicidal test, various rates; type: in vivo; conditions: scale 0 to 5 (complete kill)
Maize = assay: Herbicidal test, pre- and post-emergence; type: in vivo; conditions: 10 lb/acre (11.2 kg/ha); scale 0 (no effect) to 3 (complete kill)
[5] = test system: Puccinia recondita (wheat); assay: Fungicidal test against foliar disease A (foliage spray plus soil drench); type: in vivo; conditions: 100 ppm spray and drench; 10 days
Annual Nettle = assay: Selective herbicidal activity; type: in vivo, Urtica urens; conditions: 28 days, scale 0 to 10 (complete kill)
Description: as §1
Annual Nettle Urtica urens

Pea = assay: Further herbicidal test, various rates; type: in vivo; conditions: scale 0 to 5 (complete kill)
Groundsel = assay: Selective herbicidal activity; type: in vivo, Senecio vulgaris; conditions: 28 days, scale 0 to 10 (complete kill)
Description: as §1
Groundsel Senecio vulgaris

Uncinula necator (vine) = assay: Fungicidal test against foliar disease D (foliage spray plus soil drench); type: in vivo; conditions: 100 ppm spray and drench; 10 days
[6] = test system: Piricularia oryzae (rice); type: in vivo; conditions: 100 ppm spray and drench; 7 days
White mustard = assay: Selective herbicidal activity; type: in vivo, Sinapis alba; conditions: 28 days, scale 0 to 10 (complete kill)
Description: as §1
White mustard Sinapis alba

Speedwell = assay: Selective herbicidal activity; type: in vivo, Veronica spp; conditions: 28 days, scale 0 to 10 (complete kill)
Description: as §1

Lettuce = assay: Herbicidal test, pre- and post-emergence; type: in vivo; conditions: 10 lb/acre (11.2 kg/ha); scale 0 (no effect) to 3 (complete kill)
[7] = test system: Phaedon cochleariae (mustard beetles); assay: Pest toxicity test; type: in vivo; conditions: 0.1% by weight; mustard/paper; 2 days
Oat = assay: Further herbicidal test, various rates; type: in vivo; conditions: scale 0 to 5 (complete kill)
Megoura viceae = assay: Pest toxicity test; type: in vivo; conditions: 0.1% by weight; broad bean; 2 days
Aphis fabae = assay: Pest toxicity test; type: in vivo; conditions: 0.1% by weight; broad bean; 2 days
[8] = test system: Musca domestica (houseflies); assay: Pest toxicity test, contact test; type: in vivo; conditions: 0.1% by weight; milk/sugar; 2 days; flies sprayed directly
[9] = test system: Tetranychus telarius (red spider mites, eggs); assay: Pest toxicity test; type: in vivo; conditions: 0.1% by weight; French bean; 3 days
[10] = test system: Aedes aegypti (mosquito adults); assay: Pest toxicity test; type: in vivo; conditions: 0.01% by weight; plywood; 1 day
[11] = test system: Plasmopara viticola (vine); assay: Fungicidal test against foliar disease C (foliage spray plus soil drench); type: in vivo; conditions: 100 ppm spray and drench; 10 days
Chickweed = assay: Selective herbicidal activity; type: in vivo, Stellaria media; conditions: 28 days, scale 0 to 10 (complete kill)
Description: as §1
Chickweed Stellaria media

Mayweed = assay: Selective herbicidal activity; type: in vivo, Tripleurospermum maritimum ssp. inodorum; conditions: 28 days, scale 0 to 10 (complete kill)
Description: as §1
Mayweed Tripleurospermum maritimum

Wheat [12] = assay: Herbicidal test, pre- and post-emergence; type: in vivo; conditions: 10 lb/acre (11.2 kg/ha); scale 0 (no effect) to 3 (complete kill)
[13] = test system: Plutella maculipennis (diamond back moth larvae); assay: Pest toxicity test; type: in vivo; conditions: 0.1% by weight; mustard/paper; 2 days
Redshank = assay: Selective herbicidal activity; type: in vivo, Polygonum persicaria; conditions: 28 days, scale 0 to 10 (complete kill)
Description: as §1
Redshank Polygonum persicaria

Carrot = assay: Further herbicidal test, various rates; type: in vivo; conditions: scale 0 to 5 (complete kill)
Tomato = assay: Herbicidal test, pre- and post-emergence; type: in vivo; conditions: 10 lb/acre (11.2 kg/ha); scale 0 (no effect) to 3 (complete kill)
[14] = test system: Venturia inaequalis (apple); assay: Fungicidal test against foliar disease G (foliage spray plus soil drench); type: in vivo; conditions: 100 ppm spray and drench; 21 days
Protocol: This Example illustrates the fungicidal properties of compounds used as active ingredients in the compositions of the invention. The compounds were tested against a wide variety of foliar fungal diseases of plants. In the test, a composition comprising an aqueous solution or suspension of the test compound was sprayed on to the foliage or uninfected plants; the soil in which the plants were growing was also drenched with the composition. The compositions used for spraying and drencing contained 100 parts per million (ppm.) of the test compound except where otherwise stated in the table of results below. After spraying and drenching, the plants were then exposed to infection with the diseases it was desired to control, along with control plants not treated with the compound. After a period of days, depending upon the particular disease, the extent of the disease was visually assessed, as a percentage of the disease established upon the control plants which had not been treated with the compound under test, according to the grading scheme below
In Table 2 below the names of the disease is given in the first column, and in the second column is given the time which elapsed between exposing the plants to infection and assessing the amount of disease.

Rice = assay: Further herbicidal test, various rates; type: in vivo; conditions: scale 0 to 5 (complete kill)
[15] = test system: Pieris brassicae (cabbage white caterpillars); assay: Pest toxicity test; type: in vivo; conditions: 0.1% by weight, 2 days
Sugar beet = assay: Further herbicidal test, various rates; type: in vivo; conditions: scale 0 to 5 (complete kill)
Kale = assay: Further herbicidal test, various rates; type: in vivo; conditions: scale 0 to 5 (complete kill)
[16] = test system: Aedes aegypti (mosquito larvae); assay: Pest toxicity test; type: in vivo
Wild oat = assay: Selective herbicidal activity; type: in vivo, Avenua fatua; conditions: 28 days, scale 0 to 10 (complete kill)
Description: as §1

O=[N+]([O-])c1ccc(Nc2c(Cl)c(F)nc(F)c2Cl)c(C(F)(F)F)c1 [Compound 5]
undamaged: damage to wheat (in words) (Wheat [1]; Tables 13 and 14) | damage to barley (in words) (Barley [2]; Tables 13 and 14)
3 (3 represents over 90% kill): Mortality grading (kill) [3] | Mortality grading (kill) (Megoura viceae) | Mortality grading (kill) (Aphis fabae) | Mortality grading (kill) [9] | Mortality grading (kill) [15]
5: Damage to plants, pre-emergence (Barley [4]; 1 lb/acre) | Damage to plants, pre-emergence (Barley [4]; 5 lb/acre) | Damage to plants, post-emergence (Onion; 5 lb/acre) | Damage to plants, pre-emergence (Onion; 5 lb/acre) | Damage to plants, pre-emergence (Oat; 5 lb/acre) | Damage to plants (Redshank; 0.5 kg/hectare) | Damage to plants, post-emergence (Carrot; 1 lb/acre) | Damage to plants, post-emergence (Carrot; 5 lb/acre) | Damage to plants, pre-emergence (Carrot; 5 lb/acre) | Damage to plants, pre-emergence (Rice; 5 lb/acre) | Damage to plants, post-emergence (Sugar beet; 1 lb/acre) | Damage to plants, post-emergence (Sugar beet; 5 lb/acre) | Damage to plants, pre-emergence (Sugar beet; 5 lb/acre) | Damage to plants, post-emergence (Kale; 1 lb/acre) | Damage to plants, post-emergence (Kale; 5 lb/acre) | Damage to plants, pre-emergence (Kale; 5 lb/acre)
8: Damage to plants (Chickweed; 0.5 kg/hectare)
0 (O represents less than 30% kill): Mortality grading (kill) [7] | Mortality grading (kill), contact test [8] | Mortality grading (kill) [10] | Mortality grading (kill) ([16]; 0.01% by weight, water, 1 day)
5.5: Damage to plants (Wild oat; 4 kg/hectare)
0: Damage to plants (Wheat [1]; 0.5 kg/hectare) | Damage to plants (Wheat [1]; 4 kg/hectare) | Damage to plants (Barley [2]; 0.5 kg/hectare) | Damage to plants (Barley [2]; 4 kg/hectare) | Damage to plants, pre-emergence (Onion; 1 lb/acre) | Damage to plants, post-emergence (Maize) | Damage to plants, pre-emergence (Maize) | Damage to plants, pre-emergence (Pea; 1 lb/acre) | Damage to plants (White mustard; 0.5 kg/hectare) | Damage to plants, post-emergence (Wheat [12]) | Damage to plants, post-emergence (Rice; 1 lb/acre) | Damage to plants, post-emergence (Rice; 5 lb/acre) | Damage to plants, pre-emergence (Sugar beet; 1 lb/acre) | Damage to plants, pre-emergence (Kale; 1 lb/acre) | Damage to plants (Wild oat; 0.5 kg/hectare)
caused damage to the broadleaved plants: damage to the broadleaved plants (in words) (broadleaved plants)
2: Damage to plants, pre-emergence (Oat; 1 lb/acre) | Damage to plants, pre-emergence (Wheat [12]) | Damage to plants, pre-emergence (Carrot; 1 lb/acre)
abnormal growth effects: abnormal growth effects in larva of mosquitos ([16]; in vivo)
3: Damage to plants, post-emergence (Barley [4]; 1 lb/acre) | Damage to plants, post-emergence (Barley [4]; 5 lb/acre) | Damage to plants, post-emergence (Onion; 1 lb/acre) | Damage to plants, pre-emergence (Pea; 5 lb/acre) | Damage to plants, post-emergence (Lettuce) | Damage to plants, pre-emergence (Lettuce) | Damage to plants, post-emergence (Oat; 1 lb/acre) | Damage to plants, post-emergence (Tomato) | Damage to plants, pre-emergence (Tomato) | Damage to plants, pre-emergence (Rice; 1 lb/acre)
4: Damage to plants, post-emergence (Pea; 1 lb/acre) | Damage to plants, post-emergence (Pea; 5 lb/acre) | Damage to plants (Groundsel; 0.5 kg/hectare) | Damage to plants, post-emergence (Oat; 5 lb/acre)
10: Damage to plants (Annual Nettle; 0.5 kg/hectare) | Damage to plants (Annual Nettle; 4 kg/hectare) | Damage to plants (Groundsel; 4 kg/hectare) | Damage to plants (Speedwell; 0.5 kg/hectare) | Damage to plants (Speedwell; 4 kg/hectare) | Damage to plants (Chickweed; 4 kg/hectare) | Damage to plants (Mayweed; 4 kg/hectare) | Damage to plants (Redshank; 4 kg/hectare)
3 (0 to 5): Amount of disease grading, disease A [5] | Amount of disease grading, disease D (Uncinula necator (vine)) | Amount of disease grading, disease C [11] | Amount of disease grading, disease G [14]
0 (61 to 100): Amount of disease grading, disease E [6]
8.5: Damage to plants (White mustard; 4 kg/hectare)
1 (1 represents 30 - 49% kill): Mortality grading (kill) [13]
6: Damage to plants (Mayweed; 0.5 kg/hectare)
